In one data set the target is T1, human α2C receptor (Homo sapiens, UniProt P18825).
T1 construct: expressed in transfected cells; host or cells: CHO cells, also recombinantly expressing chimeric G protein Gαqi3 and mitochondrial obelin (mtOb)
T1 sequence (P18825 1-462): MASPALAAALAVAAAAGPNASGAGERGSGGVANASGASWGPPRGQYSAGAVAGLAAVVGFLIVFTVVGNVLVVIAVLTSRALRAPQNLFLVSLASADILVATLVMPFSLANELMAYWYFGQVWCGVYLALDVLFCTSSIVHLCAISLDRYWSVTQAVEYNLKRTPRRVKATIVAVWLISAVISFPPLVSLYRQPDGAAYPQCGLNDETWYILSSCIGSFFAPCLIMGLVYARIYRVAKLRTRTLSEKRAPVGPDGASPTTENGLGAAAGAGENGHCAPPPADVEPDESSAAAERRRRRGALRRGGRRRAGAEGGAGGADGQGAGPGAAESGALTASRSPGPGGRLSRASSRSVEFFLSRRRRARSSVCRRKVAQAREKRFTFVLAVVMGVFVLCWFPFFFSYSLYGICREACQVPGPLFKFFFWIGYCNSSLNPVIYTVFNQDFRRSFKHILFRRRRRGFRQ
Briefly: Antagonism against the adrenoreceptor α2C (luminescence, recombinant CHO cell line). The settings on record: antagonism against adrenoreceptor α2C; noradrenaline 20 nM; tested up to 10 μM; read-out: IC50. The data set is classed as cell-based. Put shortly:
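CHO cells expressing human α2C receptor with chimeric Gαqi3 and mitochondrial obelin, loaded with 2.5 μg/ml coelenterazine for one day at 30 °C.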

The next data set deals with Wistar rat. Briefly: Measurement of blood flow and blood pressure in rats (Wistar rats). Format: in vivo. The conditions noted are these: steady state, 32 min after start, vs initial flow, mean. How it is done: (§1) Wistar rats (Hsd Cpb:Wu) of a weight of 250-350 g or ZDF rats (ZDF/Crl-Lepr fa/fa) of a weight of 330-520 g were anaesthetized using 2.5% isoflurane in an oxygen/laughing gas mixture (40:60). To determine the blood flow in the carotid artery and the femoral artery, the anaesthetized rat was brought into a supine position, and the left carotid artery and the right femoral artery are then carefully exposed. Blood flow was measured by placing flow probes (Transonic Flowprobe) at the vessels. By introducing a PE50 artery catheter into the left femoral artery, blood pressure and heart rate were determined (Transducer Ref. 5203660: from Braun CH). The substances were administered as a bolus injection or a continuous infusion via a venous catheter in the left femoral vein.
(§2) Following the preparation of the animals, there was a 5 min baseline interval. Infusion of the AR alphα2C receptor antagonist was then started. In the steady state (32 min after the start of the experiment), the femoral flow was determined in relation (% difference) to the initial flow.

Data set [1] has as its system diabetic (ZDFfa/fa) and healthy rats (Wistar). Kind of data set: Assay of perfusion-enhancing substances (microcirculation), laser doppler at the paw. Format: in vivo, rat. The settings on record: single oral dose. An excerpt: In diabetic (ZDFfa/fa) and healthy rats (Wistar), a laser doppler probe was fastened under anaesthesia conditions (isoflurane anaesthesia) at the sole of the paw for measuring cutaneous microcirculation. The test animals were once treated orally with the test substances. During the experiment, microperfusion and temperature of the lower extremities were documented continuously. Here, a temperature-sensitive laser doppler probe (Periflux, O2C) was fastened with adhesive to the paws of the animals, allowing the measurement of microperfusion and skin temperature. The microcirculation measurement values were measured on both paws 30 min after oral administration of the test substance. […] Also stated is the MED for the significant increase of skin temperature (ttest).

The next data set concerns ZDF rat. Briefly: Measurement of blood flow and blood pressure in rats (ZDF rats). The settings on record: for Change in the femoral flow in %: ZDF rat, steady state, 32 min after start, vs initial flow, mean. Format: in vivo. How it is done:
as §1, §2

[2] abbreviates: anaesthetized rats, same experiment as femoral flow, strain not specified.

The term IC50 denotes the midpoint of a concentration-inhibition curve. `CC1CCCN(C2CCN(C(=O)c3ccc(C(C)(C)O)cc3)CC2)C1` (single isomer, unassigned) [Example 8, [4-(1-Hydroxy-1-methylethyl)phenyl)](3-methyl-1,4′-bipiperidin-1′-yl)methanone, (−)-enantiomer]: the IC50 at human α2C receptor turned out to be 0.163 µM. Moreover, the “Change in the femoral flow in %” value in the data set on Wistar rat (10 μg/kg/min) was 14.2 (n = 3) %; in the data set on Wistar rat (30 μg/kg/min infusion) it was 3.1 (n = 5) %; in the data set with Wistar rat (300 μg/kg/min infusion) it was 15.3 (n = 5) %; in the data set with ZDF rat (3 μg/kg/min infusion) it was 12.0 (n = 4) %; in the data set on ZDF rat (10 μg/kg/min infusion) it was 127.9%; in the data set with ZDF rat (30 μg/kg/min infusion), 144.4%. Also, the “factor by which microcirculation is improved at this dose compared to placebo” value in data set [1] (at the MED, 30 min after administration) is recorded as 2.3 x. Besides, the “MED [mg/kg] skin temperature” value in data set [1] (minimum effective dose for significant increase of skin temperature (ttest)) is on record as 1 mg/kg. Also, the “MED [mg/kg] microcirculation” value in data set [1] (minimum effective dose for significantly improved microcirculation vs placebo, 30 min after administration) amounted to 1 mg/kg. Also, the blood pressure result with ZDF rat (setting [2]) is “no changes”. In addition, in the data set on ZDF rat (setting [2]), the heart rate result is reported as “no changes”.

Values taken from US20160318866A1, “SUBSTITUTED BIPIPERIDINYL DERIVATIVES” (Bayer Pharma Aktiengesellschaft, priority 2013, published 2016).
